Legend:
RAW264.7 [1] = assay: Cytotoxicity against mouse RAW 264.7 cells assessed as cell viability by MTT assay; type: cell-based
RAW264.7 [2] = assay: Inhibition of LPS-induced NO release in mouse RAW264.7 cells preincubated for 1 hrs followed by LPS stimulation and measured after 24 hrs by Griess reagent based assay; type: functional, cell-based
RAW264.7 [3] = assay: Cytotoxicity against LPS-induced mouse RAW 264.7 cells assessed as cell viability measured by MTT assay; type: cell-based
L02 [4] = assay: Cytotoxicity against human L02 cells assessed as cell viability by MTT assay; type: cell-based
RAW264.7 [5] = assay: Antiinflammatory activity against mouse RAW264.7 cells assessed as inhibition of LPS-induced NO production at 10 uM preincubated for 1 hrs followed by LPS stimulation and measured after 24 hrs by Griess assay relative to control; type: functional; conditions: time 25 hrs
L02 [6] = assay: Antiinflammatory activity against human L02 assessed as inhibition of LPS-induced NO production preincubated for 1 hrs followed by LPS stimulation and measured after 24 hrs by Griess assay relative to control; type: functional, cell-based
[7] = target: T1, Nitric oxide synthase, inducible (Mus musculus, UniProt P29477); assay: Inhibition of LPS induced NO-dependent iNOS activity in mouse RAW 264.7 cells preincubated for 1 hrs followed by LPS stimulation and measured after 24 hrs by Griess reagent based assay; type: cell-based, RAW264.7
T1 sequence (P29477 whole entry): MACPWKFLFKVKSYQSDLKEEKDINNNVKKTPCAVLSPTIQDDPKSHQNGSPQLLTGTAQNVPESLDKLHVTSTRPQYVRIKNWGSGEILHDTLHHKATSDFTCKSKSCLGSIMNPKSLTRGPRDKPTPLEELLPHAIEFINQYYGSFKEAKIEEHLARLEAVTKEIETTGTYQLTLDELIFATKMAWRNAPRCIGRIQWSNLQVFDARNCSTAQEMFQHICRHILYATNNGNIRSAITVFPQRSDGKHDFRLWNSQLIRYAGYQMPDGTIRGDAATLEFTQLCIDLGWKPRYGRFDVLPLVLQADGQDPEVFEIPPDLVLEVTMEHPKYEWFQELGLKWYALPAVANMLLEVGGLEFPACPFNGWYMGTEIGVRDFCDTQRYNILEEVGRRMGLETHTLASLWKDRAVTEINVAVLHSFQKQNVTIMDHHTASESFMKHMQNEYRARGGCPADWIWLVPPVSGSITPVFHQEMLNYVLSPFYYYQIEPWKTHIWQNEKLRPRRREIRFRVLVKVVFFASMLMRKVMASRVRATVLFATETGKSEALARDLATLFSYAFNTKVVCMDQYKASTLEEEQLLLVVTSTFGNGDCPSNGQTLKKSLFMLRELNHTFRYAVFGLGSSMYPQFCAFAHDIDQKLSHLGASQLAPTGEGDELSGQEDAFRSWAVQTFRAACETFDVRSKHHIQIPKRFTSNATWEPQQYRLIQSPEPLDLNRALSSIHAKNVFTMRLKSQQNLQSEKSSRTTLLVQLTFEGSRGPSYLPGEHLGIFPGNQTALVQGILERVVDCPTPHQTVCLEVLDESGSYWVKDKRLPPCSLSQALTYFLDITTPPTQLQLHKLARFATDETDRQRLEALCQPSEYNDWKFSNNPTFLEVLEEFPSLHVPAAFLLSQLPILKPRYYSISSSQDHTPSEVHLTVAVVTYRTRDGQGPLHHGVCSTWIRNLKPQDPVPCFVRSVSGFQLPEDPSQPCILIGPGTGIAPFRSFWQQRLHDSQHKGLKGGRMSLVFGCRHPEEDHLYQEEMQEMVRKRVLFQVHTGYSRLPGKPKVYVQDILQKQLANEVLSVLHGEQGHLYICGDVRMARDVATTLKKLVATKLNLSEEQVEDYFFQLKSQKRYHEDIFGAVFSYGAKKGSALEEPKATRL

RAW264.7 [8] = assay: Cytotoxicity against mouse RAW264.7 cells at 20 uM measured after 24 hrs; type: cell-based; conditions: raw264.7, 24 h
[9] = Metabolic stability in rat hepatocytes assessed as intrinsic clearance incubated up to 120 mins measured per million cells by LC-MS/MS analysis; type: ADME, cell-based, Hepatocyte; conditions: read-out: CLH
[10] = Metabolic stability in rat hepatocytes assessed as half life measured upto 120 mins by LC-MS/MS analysis; type: ADME, cell-based, Hepatocyte
[11] = Metabolic stability in human hepatocytes assessed as clearance incubated up to 120 mins measured per million cells by LC-MS/MS analysis; type: ADME, cell-based, Hepatocyte; conditions: read-out: CLH
[12] = Metabolic stability in human hepatocytes assessed as half life measured upto 120 mins by LC-MS/MS analysis; type: ADME, cell-based, Hepatocyte

| SMILES | IC50 (RAW264.7 [1]) | IC50 (RAW264.7 [2]) | IC50 (RAW264.7 [3]) | IC50 (L02 [4]) | inhibition at 10 µM (RAW264.7 [5]) | IC50 (L02 [6]) | IC50 [7] | Activity (RAW264.7 [8]) | hepatocyte CLint [9] | half-life [10] | hepatocyte CLint [11] | half-life [12] |
| --- | --- | --- | --- | --- | --- | --- | --- | --- | --- | --- | --- | --- |
| C[C@@H]1C[C@H]2[C@@H]3CCC4=CC(=O)C=C[C@]4(C)[C@@]3(F)[C@@H](O)C[C@]2(C)[C@@]1(O)C(=O)CO [DEXAMETHASONE] | > 50 µM | 8.71 µM | > 50 µM | 4620 µM | 51.8% | 4620 µM | > 10 µM |  |  |  |  |  |
| COc1cc(/C=C/c2nc(Nc3ccc(C(F)(F)F)cc3)c3sccc3n2)cc(OC)c1OC | > 50 µM | 9.36 µM | > 50 µM | 436 µM | 55.4% | 436 µM | 4.2 µM | Non-Toxic |  |  |  |  |
| COc1ccc(Nc2nc(/C=C/c3cc(OC)c(OC)c(OC)c3)nc3ccsc23)cc1 | > 50 µM | 10.7 µM | > 50 µM | 279 µM | 52.5% | 279 µM | 5.12 µM | Non-Toxic |  |  |  |  |
| COc1cc(/C=C/c2nc(Nc3ccc(O)cc3)c3sccc3n2)cc(OC)c1OC | > 50 µM | 4.07 µM | > 50 µM | 2300 µM | 97.7% | > 1000 µM | 1.89 µM | Non-Toxic |  |  |  |  |
| COc1cc(/C=C/c2nc(NCc3ccc(Cl)cc3)c3sccc3n2)cc(OC)c1OC | > 50 µM | 9.05 µM | > 50 µM | 4320 µM | 65.5% | > 1000 µM | 4.23 µM | Non-Toxic |  |  |  |  |
| COc1ccc2[nH]c([S+]([O-])Cc3ncc(C)c(OC)c3C)nc2c1 (stereo not drawn) [OMEPRAZOLE] |  |  |  |  |  |  |  |  | 51.4 µL/min/1e6 cells | 13.5 min | 24.6 µL/min/1e6 cells | 28.2 min |
| Cc1ncc2n1-c1ccc(Cl)cc1C(c1ccccc1F)=NC2 [MIDAZOLAM] |  |  |  |  |  |  |  |  | 176 µL/min/1e6 cells | 3.9 min | 42.6 µL/min/1e6 cells | 16.3 min |
| COc1ccc2c(c1)[C@]13CCCC[C@@H]1[C@H](C2)N(C)CC3 [DEXTROMETHORPHAN] |  |  |  |  |  |  |  |  | 150 µL/min/1e6 cells | 4.6 min | 47.8 µL/min/1e6 cells | 14.5 min |
| COc1cc(/C=C/c2nc(NC3CC3)c3sccc3n2)cc(OC)c1OC | > 50 µM | 6.03 µM | > 50 µM | 2360 µM | 90.7% | > 1000 µM | 4.32 µM | Non-Toxic |  |  |  |  |
| COc1cc(/C=C/c2nc(NCc3ccccc3)c3sccc3n2)cc(OC)c1OC | > 50 µM | 8.26 µM | > 50 µM | 1800 µM | 71.9% | > 1000 µM | 3.62 µM | Non-Toxic |  |  |  |  |
| COc1ccc(CNc2nc(/C=C/c3cc(OC)c(OC)c(OC)c3)nc3ccsc23)cc1 | > 50 µM | 7.54 µM | > 50 µM | 2050 µM | 73.7% | > 1000 µM | 3.26 µM | Non-Toxic |  |  |  |  |
| CCOc1ccc(NC(C)=O)cc1 [PHENACETIN] |  |  |  |  |  |  |  |  | 21.3 µL/min/1e6 cells | 32.6 min | 15.8 µL/min/1e6 cells | 43.8 min |
| COc1cc(/C=C/c2nc(NCc3ccncc3)c3sccc3n2)cc(OC)c1OC | > 50 µM | 6.35 µM | > 50 µM | 374 µM | 76% | 374 µM | 3.12 µM | Non-Toxic |  |  |  |  |
| O=C(O)Cc1ccccc1Nc1c(Cl)cccc1Cl [DICLOFENAC] |  |  |  |  |  |  |  |  | 50.3 µL/min/1e6 cells | 13.6 min | 75.8 µL/min/1e6 cells | 9.1 min |
| FC(F)(F)c1ccc(Nc2nc(/C=C/c3ccccc3)nc3ccsc23)cc1 |  |  |  |  | 30.1% | > 1000 µM |  | Non-Toxic |  |  |  |  |
| COc1cc(/C=C/c2nc(N3CCCC3)c3sccc3n2)cc(OC)c1OC |  |  |  |  | 33.2% | 681 µM |  | Non-Toxic |  |  |  |  |
| CCCc1nn(C)c2c(NCCc3cccc(Cl)c3)nc(/C=C/c3nc(C)c(C)nc3C)nc12 |  |  |  |  | 68.8% | 786 µM |  | Non-Toxic |  |  |  |  |
| CCCc1nn(C)c2c(N3CCS(=O)(=O)CC3)nc(/C=C/c3cccnc3)nc12 |  |  |  |  | 60.2% | 472 µM |  | Non-Toxic |  |  |  |  |
| CNc1nc(/C=C/c2cc(OC)c(OC)c(OC)c2)nc2ccsc12 |  |  |  |  | 39.5% | > 1000 µM |  | Non-Toxic |  |  |  |  |
| Fc1ccccc1CNc1nc(/C=C/c2ccco2)nc2ccsc12 |  |  |  |  | 11.7% | > 1000 µM |  | Non-Toxic |  |  |  |  |
| CCCc1nn(C)c2c(N3CCS(=O)(=O)CC3)nc(CCc3cccnc3)nc12 |  |  |  |  | 15.6% | > 1000 µM |  | Non-Toxic |  |  |  |  |
| Fc1ccc(CCNc2nc(/C=C/c3ccccc3)nc3ccsc23)cc1 |  |  |  |  | 29.8% | > 1000 µM |  | Non-Toxic |  |  |  |  |
| COc1cccc(CNc2nc(/C=C/c3ccccc3)nc3ccsc23)c1 |  |  |  |  | 30.7% | > 1000 µM |  | Non-Toxic |  |  |  |  |
